Data from patent publication US20130302909A1, “ASSESSMENT OF IGF-1 LEVELS IN HIV-INFECTED SUBJECTS AND USES THEREOF” (THERATECHNOLOGIES INC., priority 2011, published 2013).
*: point of attachment. Hexenoyl(3E) = CC/C=C/CC(=O)*

Key:
serum IGF-1 [1] = test: Serum IGF-1 SDS in HIV patients treated with ThGRF, combined phase 3 studies, extension phase (LIPO-010 Extension/CTR-1012); format: in vivo, human; settings: for SDS >2 (%) / SDS >3 (%): HIV+ male normative ranges, percent of patients
Source text: (§1) The IGF-1 normative ranges were derived from two phase 3 clinical studies of treatment with the GRF analog (hexenoyl trans-3)hGRF(1-44)NH2 (also referred to herein as “ThGRF” or “TH9507”). One phase 3 clinical study includes a main phase (6 months) and an extension phase (6 months) in one study (Lipo-010) and the second phase 3 clinical study includes two studies. CTR-1011 was the main phase (first 6 months) and CTR-1012 was the extension phase (last 6 months).
(§2) The IGF-1 data at baseline of all male patients from studies Lipo-010 and CTR-1011 were combined. Loge transformation was applied. […] The level of IGF-1 in the serum samples was determined using a blocking RIA assay. The IGF-1 blocking RIA assay is a competitive binding radioimmunoassay. It utilizes rabbit polyclonal antisera specific for IGF-1 as the primary antibody and radioiodinated recombinant human IGF-1 as tracer. Serum IGF-1 is first separated from binding proteins by acid ethanol extraction. The extracts (controls and unknown/test samples) and standard are incubated with primary antibody and tracer. Free IGF-1 present in the extracts competes with and displaces the tracer from primary antibody. A second antibody specific for rabbit immunoglobulin is added to precipitate the immunocomplexes, which are then separated from free reactants by centrifugation. The amount of radioactivity present in the precipitated immunocomplex is measured with a gamma counter and is inversely related to the concentration of IGF-1 present in the sample. The amount of tracer bound to the immunocomplexes formed in the calibrator samples (purified recombinant human IGF-1) is used to establish a dose response standard curve from which the IGF-1 concentration of controls and unknown samples are back calculated.
(§3) During clinical studies of the treatment of HIV subjects with ThGRF, initial analyses of IGF-I values of the HIV subjects was performed using a typical IGF-I determination, in which age- and gender-specific means and SD values were utilized for the calculation of the standard deviation scores (SDS). These values were derived from a relatively small cohort of healthy adults and were established assuming a Normal distribution (without any transformation of the measured IGF-1 values). As such, determination of the normative IGF-1 range was initially performed based on age- and gender-matched healthy (i.e., non-HIV) subjects, without any transformation of the measured raw IGF-1 values, referred to herein below as the “typical method” or “typical approach”.
(§4) The IGF-1 SDS were recalculated based on the means and standard deviations calculated from HIV patients (from all male patients in the above-noted clinical studies at baseline per age group as presented in Table III above, assuming a Normal distribution). The results are presented in Table IV for the main phase and the extension phase.
(§5) The calculations above (based on “healthy”, typical normative ranges or using normative ranges based on IGF-1 levels in HIV subjects) were all done assuming a Normal distribution of the IGF-1 levels. However, it was noted that the distribution of the IGF-1 levels at baseline for the patients in the phase 3 clinical studies is “Lognormal” rather than “Normal”. Thus, the means and standard deviations were recalculated using the natural log(loge or In) of IGF-1 and then calculated IGF-1 SDS using the lognormal scale, i.e. [(natural log IGF-1) minus (mean) divided by (standard deviation)]. The results using lognormal distributions are presented in Table V for the main phase and the extension phase. Importantly, the percent of patients at baseline and those treated with placebo is now much closer to expected and in addition, the % of ThGRF-treated patients being larger than +2 and +3 SDS using the lognormal distribution and the HIV population normative ranges are substantially lower than that seen using the uncorrected SDS calculators.

serum IGF-1 [2] = test: Serum IGF-1 level and IGF-1 SDS in HIV patients treated with ThGRF, combined phase 3 studies, main phase (LIPO-010 Main/CTR-1011); format: in vivo, human; settings: Week 26; for SDS >2 (%) / SDS >3 (%): HIV+ male normative ranges
Source text: as §1, §2, §3, §4, §5

[3] = Week 27, T-P group, Log-Normal distribution
[4] = Week 27, T-P group, Normal distribution
[5] = Week 27, T-T group, Log-Normal distribution
[6] = Week 27, T-T group, Normal distribution
[7] = Week 52, T-P group, Log-Normal distribution
[8] = Week 52, T-P group, Normal distribution
[9] = Week 52, T-T group, Log-Normal distribution
[10] = Week 52, T-T group, Normal distribution
[11] = Week 52, typical approach and healthy normative ranges
[12] = 2 mg/day, Log-Normal distribution, percent of patients
[13] = 2 mg/day, Normal distribution, percent of patients
[14] = 2 mg/day, typical approach, percent of patients

## (hexenoyl trans-3)hGRF(1-44)NH2 ({Hexenoyl(3E)}-YADAIFTNSYRKVLGQLSARKLLQDIMSRQQGESNQERGARARL-NH2) [ThGRF]
Serum IGF-1 [1]; [3]
  SDS >2 (%): 28.8%
  SDS >3 (%): 5.3%
Serum IGF-1 [1]; [4]
  SDS >2 (%): 40.2%
  SDS >3 (%): 21.2%
Serum IGF-1 [1]; [5]
  SDS >2 (%): 32.6%
  SDS >3 (%): 7.6%
Serum IGF-1 [1]; [6]
  SDS >2 (%): 44.5%
  SDS >3 (%): 29.2%
Serum IGF-1 [1]; [7]
  SDS >2 (%): 0.0%
  SDS >3 (%): 0.0%
Serum IGF-1 [1]; [8]
  SDS >2 (%): 1.1%
  SDS >3 (%): 0.0%
Serum IGF-1 [1]; [9]
  SDS >2 (%): 19.5%
  SDS >3 (%): 5.8%
Serum IGF-1 [1]; [10]
  SDS >2 (%): 27.9%
  SDS >3 (%): 16.3%
Serum IGF-1 [1]; [11]
  ThGRF-treated patients larger than +2 SDS: 33.7%
  ThGRF-treated patients larger than +3 SDS: 22.6%
Serum IGF-1 [2]; [12]
  SDS >2 (%): 30.1%
  SDS >3 (%): 7.4%
Serum IGF-1 [2]; [13]
  SDS >2 (%): 41.2%
  SDS >3 (%): 25.4%
Serum IGF-1 [2]; 2 mg/day, typical approach (healthy normative ranges, Normal distribution)
  IGF-1 SDS Mean (SD): 2.4 (2.85)
Serum IGF-1 [2]; [14]
  SDS >+2 (%): 47.4%
  SDS >+3 (%): 35.6%
Serum IGF-1 [2]; ThGRF 2 mg/day
  IGF-1 level Mean (SD): 262 (123.6) ng/ml
